Source: PMC10584170, “Machine learning-based phenotypic imaging to characterise the targetable biology of Plasmodium falciparum male gametocytes for the development of transmission-blocking antimalarials” (PLOS Pathogens, 2023)

Key:
[1] = tested on: P. falciparum male gametocytes; assay: P. falciparum Dual Gamete Formation Assay (PfDGFA), male readout (exflagellation); assay type: cell-based, Plasmodium falciparum NF54; settings: for Average inhibition male (%): average of replicates; for % inhibition male (individual replicates) R1: replicate R1; for % inhibition male (individual replicates) R3: replicate R3; for % inhibition male (individual replicates) R4: replicate R4; for Activity: hit = >50% inhibition in male or female readout in at least 3 replicates, 0 = no class assigned
Outline: (§1)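 First, day-14 P. falciparum NF54 gametocytes receive compound for 24 h at 37°C in 1% O2/3% CO2. Next, ookinete medium with Cy3 anti-Pfs25 triggers gametogenesis at 28°C and male exflagellation is imaged. Finally, after 24 h in the dark, Cy3-labelled females are imaged.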

[2] = tested on: P. falciparum female gametocytes; assay: P. falciparum Dual Gamete Formation Assay (PfDGFA), female readout (Pfs25-positive female gametes); assay type: cell-based, Plasmodium falciparum NF54; settings: for Average inhibition female (%): average of replicates; for % inhibition female (individual replicates) R1: replicate R1; for % inhibition female (individual replicates) R3: replicate R3; for % inhibition female (individual replicates) R4: replicate R4
Outline: as §1

[3] = 2µM, 24h preincubation with gametocytes prior to induction of gametogenesis
[4] = 2µM, 24h preincubation, hits selected on >50% inhibition in the male readout across replicates
[5] = PfDGFA at 2µM, 24h preincubation
[6] = 2µM, 24h preincubation, hits selected on >50% inhibition in the female readout across replicates
[7] = 2µM, 24h preincubation, number of replicates with >50% inhibition in the male readout
[8] = 2µM, 24h preincubation, number of replicates with >50% inhibition in the female readout
[9] = PfDGFA at 2µM, 24h preincubation with gametocytes prior to induction of gametogenesis

SMILES	Average inhibition male (%) [1, 3]	% inhibition male (individual replicates) R1 [1, 3]	% inhibition male (individual replicates) R3 [1, 3]	% inhibition male (individual replicates) R4 [1, 3]	Average inhibition female (%) [2, 3]	% inhibition female (individual replicates) R1 [2, 3]	% inhibition female (individual replicates) R3 [2, 3]	% inhibition female (individual replicates) R4 [2, 3]	HitlevelM [1, 7]	HitlevelF [2, 8]	also measured
CC(CCCC(=O)Nc1ccc(CC(C)NCCc2cccc(Cl)c2)cc1)NCCc1cccc(Cl)c1 (stereo not shown) [TCMDC-139798]	45.7%	47.5%	7.0%	68.9%	14.3%	14.3%	3.2%	8.4%			HitlevelM [1, 4]: 2; Activity [1, 5]: 0; HitlevelF [2, 6]: 0
CC(CCCCCC(=O)Nc1ccc(CC(C)NCCc2cccc(Cl)c2)cc1)NCCc1cccc(Cl)c1 (stereo not shown) [TCMDC-139800]	45.2%	25.8%	-13.9%	77.6%	20.4%	18.8%	1.8%	5.6%	2	1	
CCOc1ccccc1CCNC(C)Cc1ccc(C(=O)Nc2ccc(CC(C)NCCc3cccc(Cl)c3)cc2)cc1 (stereo not shown) [TCMDC-139805]	59.5%	59.5%	21.2%	86.9%	24.4%	22.1%	9.3%	29.9%	3	0	
CC(Cc1ccc(COc2ccc(CC(CO)NCCc3cccc(Cl)c3)cc2)cc1)NCCc1cccc(Cl)c1.Cl (stereo not shown) [TCMDC-139844]											% inhibition male (individual replicates) R1 [1, 9]: -13.5%; % inhibition male (individual replicates) R3 [1, 9]: 14.9%; % inhibition male (individual replicates) R4 [1, 9]: 2.8%; Average inhibition male (%) [1, 5]: 1.7%; % inhibition female (individual replicates) R1 [2, 9]: -3.0%; % inhibition female (individual replicates) R3 [2, 9]: -11.7%; % inhibition female (individual replicates) R4 [2, 9]: 12.8%; Average inhibition female (%) [2, 5]: 1.7%
CC(Cc1ccc(NC(=O)c2ccc(CNCCc3ccccc3)cc2)cc1)NCCc1cccc(Cl)c1.Cl (stereo not shown) [TCMDC-139867]	35.8%	30.2%	5.8%	68.9%	17.5%	19.8%	17.3%	1.2%			HitlevelM [1, 4]: 1; Activity [1, 5]: 0; HitlevelF [2, 6]: 0
CCCCCCCN1CC[C@@H](CCCc2ccnc3ccc(OC)cc23)[C@@H](CNC)C1.O=C(O)C(=O)O [TCMDC-139875]	45.5%	37.4%	18.3%	73.6%	34.8%	28.9%	7.1%	50.9%	2	2	
COc1ccc(OC)c(C=CC(=O)NC2CCC(CN3CCC(c4c[nH]c5ccccc45)CC3)CC2)c1 (stereo not shown) [TCMDC-139893]											% inhibition male (individual replicates) R1 [1, 9]: 4.2%; % inhibition male (individual replicates) R3 [1, 9]: -21.0%; % inhibition male (individual replicates) R4 [1, 9]: 20.2%; Average inhibition male (%) [1, 5]: 1.9%; % inhibition female (individual replicates) R1 [2, 9]: 6.5%; % inhibition female (individual replicates) R3 [2, 9]: -21.7%; % inhibition female (individual replicates) R4 [2, 9]: -6.1%; Average inhibition female (%) [2, 5]: -1.6%
CN(C)CCCNCc1ccc(-c2ccc(C(F)(F)F)cc2)cc1 [TCMDC-140011]	54.2%	60.9%	33.7%	61.6%	26.9%	39.3%	-6.8%	25.9%	3	0	
OCc1c(Cl)cc(Cl)cc1CNCCCNc1nc2ccccc2[nH]1 [TCMDC-140012]											% inhibition male (individual replicates) R1 [1, 9]: -9.5%; % inhibition male (individual replicates) R4 [1, 9]: -7.6%; Average inhibition male (%) [1, 5]: -5.6%; % inhibition female (individual replicates) R1 [2, 9]: -1.6%; % inhibition female (individual replicates) R3 [2, 9]: -10.9%; % inhibition female (individual replicates) R4 [2, 9]: -3.1%; Average inhibition female (%) [2, 5]: -6.6%
Nc1ccc2[nH]cc(C3CCN(CCC4CCN(C(=O)/C=C/c5ccc(Cl)c(Cl)c5)CC4)CC3)c2n1 [TCMDC-140062]	34.7%	41.7%	-5.5%	54.9%	24.0%	25.9%	21.4%	19.8%	1	0	
O=C(/C=C/c1ccc(Cl)c(Cl)c1)N1CCC(CN2CCC(c3c[nH]c4ccncc34)CC2)CC1 [TCMDC-140074]	29.9%	24.9%	-2.0%	40.2%	19.7%	24.3%	8.2%	6.7%	1	0	
COc1cc(C(=O)NC2CCN(Cc3ccccc3)CC2)ccc1-c1nc2cc(Cl)c(Cl)cc2[nH]1 [TCMDC-140078]	4.4%	13.3%	2.8%	2.9%	6.4%	17.0%	-8.0%	18.5%			HitlevelM [1, 4]: 0; Activity [1, 5]: 0; HitlevelF [2, 6]: 0
CN(C)CCCOc1cccc(CCNCc2cccc(Oc3ccc(Cl)cc3)c2)c1.O=C(O)C(F)(F)F [TCMDC-140091]	24.7%	7.1%	12.3%	44.2%	6.3%	16.6%	-0.66%	-7.8%			HitlevelM [1, 4]: 0; Activity [1, 5]: 0; HitlevelF [2, 6]: 0
CC(=O)Nc1ccc2[nH]cc(C3CCN(CC4CCC(NC(=O)/C=C/c5ccccc5Cl)CC4)CC3)c2n1 (stereo not shown) [TCMDC-140111]	33.8%	38.4%		14.3%	28.1%	31.7%	20.9%	26.6%	0	0	
CC(=O)Nc1ccc2[nH]cc(C3CCN(CC4CCN(C(=O)/C=C/c5ccc(Cl)c(Cl)c5)CC4)CC3)c2n1 [TCMDC-140112]	36.8%	41.7%	26.0%	45.6%	33.3%	35.7%	28.7%	36.0%	0	0	
CC(=O)Nc1ccc2[nH]cc(C3CCN(CC4CCC(NC(=O)/C=C/c5ccc(Cl)c(Cl)c5)CC4)CC3)c2n1 (stereo not shown) [TCMDC-140114]	48.3%	53.7%	39.7%	57.6%	33.1%	26.2%	29.8%	41.8%	2	0	
Nc1cc2c(C3CCN(CC4CCN(C(=O)/C=C/c5ccc(Cl)c(Cl)c5)CC4)CC3)c[nH]c2cn1 [TCMDC-140133]	52.8%	50.4%	47.4%	52.9%	13.5%	13.3%	3.5%	10.0%	3	0	
